Measured values: patent US9328106B2, “Cyclic ether pyrazol-4-yl-heterocyclyl-carboxamide compounds and methods of use” (Genentech, Inc., priority 2012, dated 2016)

These compounds were tested against PIM1 (Homo sapiens (Human), UniProt P11309) (assay: biochemical). Conditions: 20 pM PIM1, 1 μM FAM-peptide, 10 μM ATP, 90 minutes at room temperature; read-out: PIM1 LC3K (KI).
Format: biochemical

PIM1, sequence (P11309 whole entry): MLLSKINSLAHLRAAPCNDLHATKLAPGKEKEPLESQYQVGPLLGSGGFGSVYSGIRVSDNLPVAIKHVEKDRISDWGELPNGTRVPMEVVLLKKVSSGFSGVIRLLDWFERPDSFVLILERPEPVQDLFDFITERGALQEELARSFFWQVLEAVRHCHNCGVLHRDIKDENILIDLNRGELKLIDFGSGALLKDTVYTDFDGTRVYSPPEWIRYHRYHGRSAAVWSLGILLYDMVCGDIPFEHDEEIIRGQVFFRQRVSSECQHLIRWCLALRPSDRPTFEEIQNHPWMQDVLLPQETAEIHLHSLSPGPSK

| SMILES | Ki |
| --- | --- |
| Cc1cccc(F)c1-c1nc(C(=O)Nc2cnn(C)c2[C@@H]2CC[C@@H](N)[C@H](F)CO2)c(C)s1 [Example 369, N-[5-[(2S,5R,6S)-5-amino-6-fluoro-oxepan-2-yl]-1-methyl-pyrazol-4-yl]-2-(2-fluoro-6-methyl-phenyl)-5-methyl-thiazole-4-carboxamide] | 3.59 nM |
| Cn1ncc(NC(=O)c2ccc(F)c(-c3c(F)cc(Cl)cc3F)n2)c1[C@@H]1CC[C@@H](N)[C@H](F)CO1 [Example 375, N-(5-((2S,5R,6S)-5-amino-6-fluorooxepan-2-yl)-1-methyl-1H-pyrazol-4-yl)-6-(4-chloro-2,6-difluorophenyl)-5-fluoropicolinamide] | 0.036 nM |
| CN(C)C(=O)c1ccc(F)c(-c2nc(C(=O)Nc3cnn(C)c3[C@@H]3CC[C@@H](N)[C@H](F)CO3)cs2)c1F [Example 376, N-[5-[(2S,5R,6S)-5-amino-6-fluoro-oxepan-2-yl]-1-methyl-pyrazol-4-yl]-2-[3-(dimethylcarbamoyl)-2,6-difluoro-phenyl]thiazole-4-carboxamide] | 0.727 nM |
| COc1ccc(C(F)F)c(F)c1-c1nc(C(=O)Nc2cnn(C)c2[C@@H]2CC[C@@H](N)[C@H](F)CO2)cs1 [Example 378, N-[5-[(2S,5R,6S)-5-amino-6-fluoro-oxepan-2-yl]-1-methyl-pyrazol-4-yl]-2-[3-(difluoromethyl)-2-fluoro-6-methoxy-phenyl]thiazole-4-carboxamide] | 1.48 nM |
| Cn1ncc(NC(=O)c2csc(-c3c(F)cccc3CO)n2)c1[C@@H]1CC[C@@H](N)[C@H](F)CO1 [Example 382, N-[5-[(2S,5R,6S)-5-amino-6-fluoro-oxepan-2-yl]-1-methyl-pyrazol-4-yl]-2-[2-fluoro-6-(hydroxymethyl)phenyl]thiazole-4-carboxamide] | 7.2 nM |
| CC(=O)Nc1ccc(-c2nc(C(=O)Nc3cnn(C)c3[C@@H]3CC[C@@H](N)[C@H](F)CO3)cs2)cn1 [Example 386, 2-(6-acetamido-3-pyridyl)-N-[5-[(2S,5R,6S)-5-amino-6-fluoro-oxepan-2-yl]-1-methyl-pyrazol-4-yl]thiazole-4-carboxamide] | 0.389 nM |
| Cn1ncc(NC(=O)c2csc(-n3cccn3)n2)c1[C@@H]1CC[C@@H](N)[C@H](F)CO1 [Example 388, N-(5-((2S,5R,6S)-5-amino-6-fluorooxepan-2-yl)-1-methyl-1H-pyrazol-4-yl)-2-(1H-pyrazol-1-yl)thiazole-4-carboxamide] | 0.157 nM |
| Cn1ncc(NC(=O)c2csc(-n3ncc4c3CCCC4)n2)c1[C@@H]1CC[C@@H](N)[C@H](F)CO1 [Example 389, N-(5-((2S,5R,6S)-5-amino-6-fluorooxepan-2-yl)-1-methyl-1H-pyrazol-4-yl)-2-(4,5,6,7-tetrahydro-1H-indazol-1-yl)thiazole-4-carboxamide] | 0.02 nM |
| Cn1ncc(NC(=O)c2csc(-n3cc4c(n3)CCCC4)n2)c1[C@@H]1CC[C@@H](N)[C@H](F)CO1 [Example 390, N-(5-((2S,5R,6S)-5-amino-6-fluorooxepan-2-yl)-1-methyl-1H-pyrazol-4-yl)-2-(4,5,6,7-tetrahydro-2H-indazol-2-yl)thiazole-4-carboxamide] | 0.267 nM |
| Cn1ncc(NC(=O)c2csc(-c3c(F)cc4c(c3F)OCC4)n2)c1[C@@H]1CC[C@@H](N)[C@H](F)CO1 [Example 391, N-(5-((2S,5R,6S)-5-amino-6-fluorooxepan-2-yl)-1-methyl-1H-pyrazol-4-yl)-2-(5,7-difluoro-2,3-dihydrobenzofuran-6-yl)thiazole-4-carboxamide] | 0.024 nM |
| Cc1cc(F)c(-c2nc(C(=O)Nc3cnn(C)c3[C@@H]3CC[C@@H](N)[C@H](F)CO3)ccc2F)c(F)c1 [Example 392, N-(5-((2S,5R,6S)-5-amino-6-fluorooxepan-2-yl)-1-methyl-1H-pyrazol-4-yl)-6-(2,6-difluoro-4-methylphenyl)-5-fluoropicolinamide] | 0.041 nM |
| Cn1ncc(NC(=O)c2csc(-c3ccc(C4(C)COC4)cc3F)n2)c1[C@@H]1CC[C@@H](N)[C@H](F)CO1 [Example 393, N-(5-((2S,5R,6S)-5-amino-6-fluorooxepan-2-yl)-1-methyl-1H-pyrazol-4-yl)-2-(2-fluoro-4-(3-methyloxetan-3-yl)phenyl)thiazole-4-carboxamide] | 0.003 nM |

Second part, the compound after the results:

| Ki | SMILES |
| --- | --- |
| 0.018 nM | Cn1ncc(NC(=O)c2csc(-c3c(F)cc(C(C)(F)F)cc3F)n2)c1[C@@H]1CC[C@@H](N)[C@H](F)CO1 [Example 394, N-(5-((2S,5R,6S)-5-amino-6-fluorooxepan-2-yl)-1-methyl-1H-pyrazol-4-yl)-2-(4-(1,1-difluoroethyl)-2,6-difluorophenyl)thiazole-4-carboxamide] |
| 0.085 nM | Cn1ncc(NC(=O)c2csc(-n3ncc4ccccc43)n2)c1[C@@H]1CC[C@@H](N)[C@H](F)CO1 [Example 395, N-(5-((2S,5R,6S)-5-amino-6-fluorooxepan-2-yl)-1-methyl-1H-pyrazol-4-yl)-2-(1H-indazol-1-yl)thiazole-4-carboxamide] |
| 0.002 nM | Cn1ncc(NC(=O)c2csc(-n3cc4ccccc4n3)n2)c1[C@@H]1CC[C@@H](N)[C@H](F)CO1 [Example 396, N-(5-((2S,5R,6S)-5-amino-6-fluorooxepan-2-yl)-1-methyl-1H-pyrazol-4-yl)-2-(2H-indazol-2-yl)thiazole-4-carboxamide] |
| 0.016 nM | Cn1ncc(NC(=O)c2ccc(F)c(-c3c(F)cccc3F)n2)c1[C@@H]1CC[C@@H](N)[C@H](F)CO1 [Example 397, N-[5-[(2S,5R,6S)-5-amino-6-fluoro-oxepan-2-yl]-1-methyl-pyrazol-4-yl]-6-(2,6-difluorophenyl)-5-fluoro-pyridine-2-carboxamide] |
| 0.004 nM | Cc1cccnc1-c1nc(C(=O)Nc2cnn(C)c2[C@@H]2CC[C@@H](N)[C@H](F)CO2)c(N)s1 [Example 398, 5-amino-N-[5-[(2S,5R,6S)-5-amino-6-fluoro-oxepan-2-yl]-1-methyl-pyrazol-4-yl]-2-(3-methyl-2-pyridyl)thiazole-4-carboxamide] |
| 0.21 nM | Cn1ncc(NC(=O)c2csc(-c3cnc4cccnc4c3)n2)c1[C@@H]1CC[C@@H](N)[C@H](F)CO1 [Example 399, N-[5-[(2S,5R,6S)-5-amino-6-fluoro-oxepan-2-yl]-1-methyl-pyrazol-4-yl]-2-(1,5-naphthyridin-3-yl)thiazole-4-carboxamide] |
| 0.011 nM | Cn1ncc(NC(=O)c2csc(-c3c(F)ccc4[nH]ccc34)n2)c1[C@@H]1CC[C@@H](N)[C@H](F)CO1 [Example 400, N-[5-[(2S,5R,6S)-5-amino-6-fluoro-oxepan-2-yl]-1-methyl-pyrazol-4-yl]-2-(5-fluoro-1H-indol-4-yl)thiazole-4-carboxamide] |
| 0.447 nM | Cn1ncc(NC(=O)c2csc(-c3cccc(OCc4ccccc4)c3)n2)c1[C@@H]1CC[C@@H](N)[C@H](F)CO1 [Example 401, N-[5-[(2S,5R,6S)-5-amino-6-fluoro-oxepan-2-yl]-1-methyl-pyrazol-4-yl]-2-(3-benzyloxyphenyl)thiazole-4-carboxamide] |
| 0.117 nM | Cn1ncc(NC(=O)c2csc(-c3cccc4c3cnn4C)n2)c1[C@@H]1CC[C@@H](N)[C@H](F)CO1 [Example 402, N-[5-[(2S,5R,6S)-5-amino-6-fluoro-oxepan-2-yl]-1-methyl-pyrazol-4-yl]-2-(1-methylindazol-4-yl)thiazole-4-carboxamide] |
